In ChEMBL document CHEMBL3044736, “Synthesis, characterization, solvatochromic properties, and antimicrobial evaluation of 5-acetyl-2-thioxo-dihydro-pyrimidine-4,6-dione-based chalcones” (2013):
Converted amounts (≈) assume the structure as drawn.

Experiments:
Format in all cases: functional
Penicillium [1] = assay: Antimicrobial activity against Penicillium wild strain assessed as diameter of growth inhibition zone at 250 ug/ml after 48-96 hr by agar cup diffusion method; conditions: read-out: DIZ
Penicillium [2] = assay: Antimicrobial activity against Penicillium wild strain assessed as diameter of growth inhibition zone at 100 ug/ml after 48-96 hr by agar cup diffusion method; conditions: read-out: DIZ
Trichophyton rubrum [3] = assay: Antimicrobial activity against Trichophyton rubrum MTCC 296 assessed as diameter of growth inhibition zone at 100 ug/ml after 48-96 hr by agar cup diffusion method; conditions: read-out: DIZ
Aspergillus clavatus [4] = assay: Antimicrobial activity against Aspergillus clavatus MTCC 1323 assessed as diameter of growth inhibition zone at 100 ug/ml after 48-96 hr by agar cup diffusion method; conditions: read-out: DIZ
Candida albicans [5] = assay: Antimicrobial activity against Candida albicans MTCC 227 assessed as diameter of growth inhibition zone at 100 ug/ml after 48-96 hr by agar cup diffusion method; conditions: read-out: DIZ
Penicillium [6] = assay: Antimicrobial activity against Penicillium wild strain assessed as diameter of growth inhibition zone at 50 ug/ml after 48-96 hr by agar cup diffusion method; conditions: read-out: DIZ
Trichophyton rubrum [7] = assay: Antimicrobial activity against Trichophyton rubrum MTCC 296 assessed as diameter of growth inhibition zone at 50 ug/ml after 48-96 hr by agar cup diffusion method; conditions: read-out: DIZ
Aspergillus clavatus [8] = assay: Antimicrobial activity against Aspergillus clavatus MTCC 1323 assessed as diameter of growth inhibition zone at 50 ug/ml after 48-96 hr by agar cup diffusion method; conditions: read-out: DIZ
Candida albicans [9] = assay: Antimicrobial activity against Candida albicans MTCC 227 assessed as diameter of growth inhibition zone at 50 ug/ml after 48-96 hr by agar cup diffusion method; conditions: read-out: DIZ
Penicillium [10] = assay: Antimicrobial activity against Penicillium wild strain assessed as diameter of growth inhibition zone at 25 ug/ml after 48-96 hr by agar cup diffusion method; conditions: read-out: DIZ
Trichophyton rubrum [11] = assay: Antimicrobial activity against Trichophyton rubrum MTCC 296 assessed as diameter of growth inhibition zone at 25 ug/ml after 48-96 hr by agar cup diffusion method; conditions: read-out: DIZ
Aspergillus clavatus [12] = assay: Antimicrobial activity against Aspergillus clavatus MTCC 1323 assessed as diameter of growth inhibition zone at 25 ug/ml after 48-96 hr by agar cup diffusion method; conditions: read-out: DIZ
Candida albicans [13] = assay: Antimicrobial activity against Candida albicans MTCC 227 assessed as diameter of growth inhibition zone at 25 ug/ml after 48-96 hr by agar cup diffusion method; conditions: read-out: DIZ
Penicillium [14] = assay: Antimicrobial activity against Penicillium wild strain by agar cup diffusion method
Aspergillus clavatus [15] = assay: Antimicrobial activity against Aspergillus clavatus MTCC 1323 by agar cup diffusion method
Pseudomonas aeruginosa [16] = assay: Antimicrobial activity against Pseudomonas aeruginosa MTCC 1688 assessed as diameter of growth inhibition zone at 25 ug/ml after 18-24 hr by agar cup diffusion method; conditions: read-out: DIZ
Escherichia coli [17] = assay: Antimicrobial activity against Escherichia coli MTCC 443 assessed as diameter of growth inhibition zone at 25 ug/ml after 18-24 hr by agar cup diffusion method; conditions: read-out: DIZ
Staphylococcus aureus [18] = assay: Antimicrobial activity against Staphylococcus aureus MTCC 96 assessed as diameter of growth inhibition zone at 25 ug/ml after 18-24 hr by agar cup diffusion method; conditions: read-out: DIZ
Streptococcus pyogenes [19] = assay: Antimicrobial activity against Streptococcus pyogenes MTCC 442 assessed as diameter of growth inhibition zone at 25 ug/ml after 18-24 hr by agar cup diffusion method; conditions: read-out: DIZ
Klebsiella pneumoniae [20] = assay: Antimicrobial activity against Klebsiella pneumoniae MTCC 109 by agar cup diffusion method
Escherichia coli [21] = assay: Antimicrobial activity against Escherichia coli MTCC 443 by agar cup diffusion method
Pseudomonas aeruginosa [22] = assay: Antimicrobial activity against Pseudomonas aeruginosa MTCC 1688 by agar cup diffusion method
Staphylococcus aureus [23] = assay: Antimicrobial activity against Staphylococcus aureus MTCC 96 by agar cup diffusion method
Streptococcus pyogenes [24] = assay: Antimicrobial activity against Streptococcus pyogenes MTCC 442 by agar cup diffusion method
Trichophyton rubrum [25] = assay: Antimicrobial activity against Trichophyton rubrum MTCC 296 by agar cup diffusion method
Candida albicans [26] = assay: Antimicrobial activity against Candida albicans MTCC 227 by agar cup diffusion method
Klebsiella pneumoniae [27] = assay: Antimicrobial activity against Klebsiella pneumoniae MTCC 109 assessed as diameter of growth inhibition zone at 250 ug/ml after 18-24 hr by agar cup diffusion method; conditions: read-out: DIZ
Pseudomonas aeruginosa [28] = assay: Antimicrobial activity against Pseudomonas aeruginosa MTCC 1688 assessed as diameter of growth inhibition zone at 250 ug/ml after 18-24 hr by agar cup diffusion method; conditions: read-out: DIZ
Escherichia coli [29] = assay: Antimicrobial activity against Escherichia coli MTCC 443 assessed as diameter of growth inhibition zone at 250 ug/ml after 18-24 hr by agar cup diffusion method; conditions: read-out: DIZ
Staphylococcus aureus [30] = assay: Antimicrobial activity against Staphylococcus aureus MTCC 96 assessed as diameter of growth inhibition zone at 250 ug/ml after 18-24 hr by agar cup diffusion method; conditions: read-out: DIZ
Streptococcus pyogenes [31] = assay: Antimicrobial activity against Streptococcus pyogenes MTCC 442 assessed as diameter of growth inhibition zone at 250 ug/ml after 18-24 hr by agar cup diffusion method; conditions: read-out: DIZ
Klebsiella pneumoniae [32] = assay: Antimicrobial activity against Klebsiella pneumoniae MTCC 109 assessed as diameter of growth inhibition zone at 100 ug/ml after 18-24 hr by agar cup diffusion method; conditions: read-out: DIZ
Pseudomonas aeruginosa [33] = assay: Antimicrobial activity against Pseudomonas aeruginosa MTCC 1688 assessed as diameter of growth inhibition zone at 100 ug/ml after 18-24 hr by agar cup diffusion method; conditions: read-out: DIZ
Escherichia coli [34] = assay: Antimicrobial activity against Escherichia coli MTCC 443 assessed as diameter of growth inhibition zone at 100 ug/ml after 18-24 hr by agar cup diffusion method; conditions: read-out: DIZ
Staphylococcus aureus [35] = assay: Antimicrobial activity against Staphylococcus aureus MTCC 96 assessed as diameter of growth inhibition zone at 100 ug/ml after 18-24 hr by agar cup diffusion method; conditions: read-out: DIZ
Streptococcus pyogenes [36] = assay: Antimicrobial activity against Streptococcus pyogenes MTCC 442 assessed as diameter of growth inhibition zone at 100 ug/ml after 18-24 hr by agar cup diffusion method; conditions: read-out: DIZ
Klebsiella pneumoniae [37] = assay: Antimicrobial activity against Klebsiella pneumoniae MTCC 109 assessed as diameter of growth inhibition zone at 50 ug/ml after 18-24 hr by agar cup diffusion method; conditions: read-out: DIZ
Pseudomonas aeruginosa [38] = assay: Antimicrobial activity against Pseudomonas aeruginosa MTCC 1688 assessed as diameter of growth inhibition zone at 50 ug/ml after 18-24 hr by agar cup diffusion method; conditions: read-out: DIZ
Escherichia coli [39] = assay: Antimicrobial activity against Escherichia coli MTCC 443 assessed as diameter of growth inhibition zone at 50 ug/ml after 18-24 hr by agar cup diffusion method; conditions: read-out: DIZ
Staphylococcus aureus [40] = assay: Antimicrobial activity against Staphylococcus aureus MTCC 96 assessed as diameter of growth inhibition zone at 50 ug/ml after 18-24 hr by agar cup diffusion method; conditions: read-out: DIZ
Streptococcus pyogenes [41] = assay: Antimicrobial activity against Streptococcus pyogenes MTCC 442 assessed as diameter of growth inhibition zone at 50 ug/ml after 18-24 hr by agar cup diffusion method; conditions: read-out: DIZ
Klebsiella pneumoniae [42] = assay: Antimicrobial activity against Klebsiella pneumoniae MTCC 109 assessed as diameter of growth inhibition zone at 25 ug/ml after 18-24 hr by agar cup diffusion method; conditions: read-out: DIZ
Trichophyton rubrum [43] = assay: Antimicrobial activity against Trichophyton rubrum MTCC 296 assessed as diameter of growth inhibition zone at 250 ug/ml after 48-96 hr by agar cup diffusion method; conditions: read-out: DIZ
Aspergillus clavatus [44] = assay: Antimicrobial activity against Aspergillus clavatus MTCC 1323 assessed as diameter of growth inhibition zone at 250 ug/ml after 48-96 hr by agar cup diffusion method; conditions: read-out: DIZ
Candida albicans [45] = assay: Antimicrobial activity against Candida albicans MTCC 227 assessed as diameter of growth inhibition zone at 250 ug/ml after 48-96 hr by agar cup diffusion method; conditions: read-out: DIZ

## O=C(/C=C/c1ccc(O)cc1)C1C(=O)NC(=S)NC1=O
Penicillium [1]
  zone of inhibition at 250 µg/mL: 24 mm
Penicillium [2]
  zone of inhibition at 100 µg/mL: 22 mm
Trichophyton rubrum [3]
  zone of inhibition at 100 µg/mL: 24 mm
Aspergillus clavatus [4]
  zone of inhibition at 100 µg/mL: 22 mm
Candida albicans [5]
  zone of inhibition at 100 µg/mL: 23 mm
Penicillium [6]
  zone of inhibition at 50 µg/mL: 19 mm
Trichophyton rubrum [7]
  zone of inhibition at 50 µg/mL: 22 mm
Aspergillus clavatus [8]
  zone of inhibition at 50 µg/mL: 21 mm
Candida albicans [9]
  zone of inhibition at 50 µg/mL: 20 mm
Penicillium [10]
  zone of inhibition at 25 µg/mL: 18 mm
Trichophyton rubrum [11]
  zone of inhibition at 25 µg/mL: 22 mm
Aspergillus clavatus [12]
  zone of inhibition at 25 µg/mL: 21 mm
Candida albicans [13]
  zone of inhibition at 25 µg/mL: 16 mm
Penicillium [14]
  MFC: > 1000 µg/mL
  MIC: > 1000 µg/mL
Aspergillus clavatus [15]
  MFC: 500 µg/mL (≈ 1720 µM)
  MIC: 500 µg/mL (≈ 1720 µM)
Pseudomonas aeruginosa [16]
  zone of inhibition at 25 µg/mL: 10 mm
Escherichia coli [17]
  zone of inhibition at 25 µg/mL: 15 mm
Staphylococcus aureus [18]
  zone of inhibition at 25 µg/mL: 10 mm
Streptococcus pyogenes [19]
  zone of inhibition at 25 µg/mL: 15 mm
Klebsiella pneumoniae [20]
  MBC: 200 µg/mL (≈ 689 µM)
  MIC: 125 µg/mL (≈ 431 µM)
Escherichia coli [21]
  MBC: 250 µg/mL (≈ 861 µM)
  MIC: 250 µg/mL (≈ 861 µM)
Pseudomonas aeruginosa [22]
  MBC: 500 µg/mL (≈ 1720 µM)
  MIC: 250 µg/mL (≈ 861 µM)
Staphylococcus aureus [23]
  MBC: 500 µg/mL (≈ 1720 µM)
  MIC: 250 µg/mL (≈ 861 µM)
Streptococcus pyogenes [24]
  MBC: 250 µg/mL (≈ 861 µM)
  MIC: 100 µg/mL (≈ 344 µM)
Trichophyton rubrum [25]
  MFC: > 1000 µg/mL
  MIC: > 1000 µg/mL
Candida albicans [26]
  MFC: 500 µg/mL (≈ 1720 µM)
  MIC: > 1000 µg/mL
Klebsiella pneumoniae [27]
  zone of inhibition at 250 µg/mL: 18 mm
Pseudomonas aeruginosa [28]
  zone of inhibition at 250 µg/mL: 18 mm
Escherichia coli [29]
  zone of inhibition at 250 µg/mL: 17 mm
Staphylococcus aureus [30]
  zone of inhibition at 250 µg/mL: 18 mm
Streptococcus pyogenes [31]
  zone of inhibition at 250 µg/mL: 17 mm
Klebsiella pneumoniae [32]
  zone of inhibition at 100 µg/mL: 16 mm
Pseudomonas aeruginosa [33]
  zone of inhibition at 100 µg/mL: 16 mm
Escherichia coli [34]
  zone of inhibition at 100 µg/mL: 16 mm
Staphylococcus aureus [35]
  zone of inhibition at 100 µg/mL: 16 mm
Streptococcus pyogenes [36]
  zone of inhibition at 100 µg/mL: 16 mm
Klebsiella pneumoniae [37]
  zone of inhibition at 50 µg/mL: 11 mm
Pseudomonas aeruginosa [38]
  zone of inhibition at 50 µg/mL: 14 mm
Escherichia coli [39]
  zone of inhibition at 50 µg/mL: 17 mm
Staphylococcus aureus [40]
  zone of inhibition at 50 µg/mL: 14 mm
Streptococcus pyogenes [41]
  zone of inhibition at 50 µg/mL: 17 mm
Klebsiella pneumoniae [42]
  zone of inhibition at 25 µg/mL: 10 mm
Trichophyton rubrum [43]
  zone of inhibition at 250 µg/mL: 24 mm
Aspergillus clavatus [44]
  zone of inhibition at 250 µg/mL: 24 mm
Candida albicans [45]
  zone of inhibition at 250 µg/mL: 23 mm
